This is an account of results in patent US9902702B2, “Spirocycloheptanes as inhibitors of rock” (BRISTOL-MYERS SQUIBB COMPANY, priority 2014, dated 2018).

This experiment deals with ROCK2 (Homo sapiens, UniProt O75116). The experiment is described as follows: ROCK assay: phosphorylation of FITC peptide substrate, LABCHIP 3000 mobility shift. The class given is biochemical. To be noted: 5 μM ATP, 1.5 μM peptide substrate; read-out: ROCK2 Activity (ROCK IC50 range). In short, it runs like this:
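Rho kinase variant phosphorylates 1.5 μM FITC-AHA-AKRRRLSSLRA-OH with 5 μM ATP in 20 mM HEPES pH 7.5, 20 mM MgCl2, 0.015% Brij-35, 4 mM DTT, DMSO <2%. EDTA stops the reaction, and phospho and non-phospho peptides are resolved by LabChip 3000 mobility shift. IC50 from dose-response curve fit.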

Sequence of ROCK2 (O75116 whole entry, species assumed): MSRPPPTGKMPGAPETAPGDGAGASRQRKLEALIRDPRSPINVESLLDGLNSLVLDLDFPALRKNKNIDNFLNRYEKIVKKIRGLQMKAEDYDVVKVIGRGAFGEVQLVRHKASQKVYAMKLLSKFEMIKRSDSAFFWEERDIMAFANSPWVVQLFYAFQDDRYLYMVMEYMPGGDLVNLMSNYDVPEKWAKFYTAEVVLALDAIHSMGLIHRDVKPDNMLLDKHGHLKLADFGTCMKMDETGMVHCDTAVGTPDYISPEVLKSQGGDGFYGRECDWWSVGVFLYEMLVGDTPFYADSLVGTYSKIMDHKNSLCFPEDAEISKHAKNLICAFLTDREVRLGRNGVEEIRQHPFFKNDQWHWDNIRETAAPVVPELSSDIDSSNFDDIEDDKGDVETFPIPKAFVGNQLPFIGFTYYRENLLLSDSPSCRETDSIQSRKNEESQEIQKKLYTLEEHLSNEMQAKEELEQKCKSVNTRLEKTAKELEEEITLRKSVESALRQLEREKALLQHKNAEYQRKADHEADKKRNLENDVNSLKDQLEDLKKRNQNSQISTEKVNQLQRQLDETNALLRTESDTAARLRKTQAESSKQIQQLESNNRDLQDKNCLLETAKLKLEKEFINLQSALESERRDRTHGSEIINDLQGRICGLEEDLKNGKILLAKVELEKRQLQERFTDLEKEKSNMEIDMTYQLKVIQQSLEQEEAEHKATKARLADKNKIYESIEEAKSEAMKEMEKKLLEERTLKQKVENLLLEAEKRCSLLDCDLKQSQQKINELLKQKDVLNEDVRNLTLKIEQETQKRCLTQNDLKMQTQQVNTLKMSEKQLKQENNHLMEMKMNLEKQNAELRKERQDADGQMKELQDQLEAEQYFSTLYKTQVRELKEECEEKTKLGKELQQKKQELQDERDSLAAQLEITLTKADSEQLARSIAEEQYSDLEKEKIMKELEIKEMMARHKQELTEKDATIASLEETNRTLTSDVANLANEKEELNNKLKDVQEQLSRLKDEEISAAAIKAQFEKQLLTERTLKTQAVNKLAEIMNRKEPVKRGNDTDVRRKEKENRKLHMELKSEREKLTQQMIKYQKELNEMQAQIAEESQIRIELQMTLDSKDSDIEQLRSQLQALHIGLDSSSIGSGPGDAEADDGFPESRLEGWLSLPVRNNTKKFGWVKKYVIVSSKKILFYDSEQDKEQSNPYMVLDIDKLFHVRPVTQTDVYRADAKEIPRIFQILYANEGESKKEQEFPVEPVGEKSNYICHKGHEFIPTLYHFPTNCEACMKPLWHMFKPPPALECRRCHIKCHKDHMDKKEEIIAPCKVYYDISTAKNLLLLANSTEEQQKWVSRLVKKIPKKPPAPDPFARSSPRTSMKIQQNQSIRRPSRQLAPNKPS

What is called IC50 is the concentration that inhibits the measured activity by half. For `O=C(NC1CC2(C1)CC(c1n[nH]c(=O)c3ccccc13)C2)c1cnn2cc(N3CCC(F)(F)C3)ccc12` [Example 90, 6-(3,3-difluoropyrrolidin-1-yl)-N-((aR)-6-(4-oxo-3,4-dihydrophthalazin-1-yl)spiro[3.3]heptan-2-yl)pyrazolo[1,5-a]pyridine-3-carboxamide], the half-inhibitory concentration (IC50) fell in the range of 0.2 to 2 nM.

Regarding `O=C(NC1CC2(C1)CC(c1n[nH]c(=O)c3ccccc13)C2)c1cnn2cc(N3CC(F)C3)ccc12` [Example 91, 6-(3-fluoroazetidin-1-yl)-N-((aR)-6-(4-oxo-3,4-dihydrophthalazin-1-yl)spiro[3.3]heptan-2-yl)pyrazolo[1,5-a]pyridine-3-carboxamide], the IC50 lay within 0.2 to 2 nM.

For the compound `O=C(NC1CC2(C1)CC(c1n[nH]c(=O)c3ccccc13)C2)c1cnn2cc(N3CC(F)(F)C3)ccc12` [Example 92, 6-(3,3-difluoroazetidin-1-yl)-N-((aR)-6-(4-oxo-3,4-dihydrophthalazin-1-yl)spiro[3.3]heptan-2-yl)pyrazolo[1,5-a]pyridine-3-carboxamide], the IC50 is 0.2 to 2 nM.

Regarding `O=C(NC1CC2(C1)CC(c1n[nH]c(=O)c3ccccc13)C2)c1cn2c(n1)sc1ccccc12` [Example 93, N-((aR)-6-(4-oxo-3,4-dihydrophthalazin-1-yl)spiro[3.3]heptan-2-yl)benzo[d]imidazo[2,1-b]thiazole-2-carboxamide], the IC50 was 2.01 to 5 nM.

Take `O=C(NC1CC2(C1)CC(c1n[nH]c(=O)c3ccccc13)C2)c1cn2c(n1)sc1ccccc12` [Example 94, N-((aR)-6-(4-oxo-3,4-dihydrophthalazin-1-yl)spiro[3.3]heptan-2-yl)benzo[d]imidazo[2,1-b]thiazole-2-carboxamide]: the IC50 lay within 5.1 to 15 nM.

`CCc1nn2cc(C(=O)NC3CC4(C3)CC(c3n[nH]c(=O)c5ccccc35)C4)nc2s1` [Example 95, 2-ethyl-N-((aR)-6-(4-oxo-3,4-dihydrophthalazin-1-yl)spiro[3.3]heptan-2-yl)imidazo[2,1-b][1,3,4]thiadiazole-6-carboxamide]: the IC50 was in the range of 5.1 to 15 nM.

As to `O=C(NC1CC2(C1)CC(c1n[nH]c(=O)c3ccccc13)C2)c1cnn2ncccc12` [Example 96, N-((aR)-6-(4-oxo-3,4-dihydrophthalazin-1-yl)spiro[3.3]heptan-2-yl)pyrazolo[1,5-b]pyridazine-3-carboxamide], the IC50 lay in the range of 15.1 to 100 nM.

In the case of `CC(C)(O)COc1ccc2c(C(=O)NC3CC4(C3)CC(c3n[nH]c(=O)c5ccccc35)C4)cnn2c1C1CC1` [Example 97, 7-cyclopropyl-6-(2-hydroxy-2-methylpropoxy)-N-((aR)-6-(4-oxo-3,4-dihydrophthalazin-1-yl)spiro[3.3]heptan-2-yl)pyrazolo[1,5-a]pyridine-3-carboxamide], the IC50 fell in the range of 0.2 to 2 nM.

As to `O=C(NC1CC2(C1)CC(c1n[nH]c(=O)c3ccccc13)C2)c1cnn2cc(OCC(O)(C(F)(F)F)C(F)(F)F)ccc12` [Example 98, N-((aR)-6-(4-oxo-3,4-dihydrophthalazin-1-yl)spiro[3.3]heptan-2-yl)-6-(3,3,3-trifluoro-2-hydroxy-2-(trifluoromethyl)propoxy)pyrazolo[1,5-a]pyridine-3-carboxamide], the IC50 was in the range of 2.01 to 5 nM.

As for `O=C(NC1CC2(C1)CC(c1n[nH]c(=O)c3ccccc13)C2)c1cnn2cc(OCc3ccccc3)ccc12` [Example 99, 6-(benzyloxy)-N-((aR)-6-(4-oxo-3,4-dihydrophthalazin-1-yl)spiro[3.3]heptan-2-yl)pyrazolo[1,5-a]pyridine-3-carboxamide], the IC50 was in the range of 0.2 to 2 nM.

In the case of `O=C(NC1CC2(C1)CC(c1n[nH]c(=O)c3ccccc13)C2)c1ccnn1CC(F)F` [Example 100, 1-(2,2-difluoroethyl)-N-((aR)-6-(4-oxo-3,4-dihydrophthalazin-1-yl)spiro[3.3]heptan-2-yl)-1H-pyrazole-5-carboxamide], the IC50 was 100 to 2100 nM.

For the compound `O=C(NC1CC2(C1)CC(c1n[nH]c(=O)c3ccccc13)C2)c1ccnn1CCC(F)(F)F` [Example 101, N-((aR)-6-(4-oxo-3,4-dihydrophthalazin-1-yl)spiro[3.3]heptan-2-yl)-1-(3,3,3-trifluoropropyl)-1H-pyrazole-5-carboxamide], the IC50 lay within 15.1 to 100 nM.

In the case of `COc1ccc(Cn2cc(C(=O)NC3CC4(C3)CC(c3n[nH]c(=O)c5ccccc35)C4)cn2)cc1` [Example 102, 1-(4-methoxybenzyl)-N-((aR)-6-(4-oxo-3,4-dihydrophthalazin-1-yl)spiro[3.3]heptan-2-yl)-1H-pyrazole-4-carboxamide], the IC50 was 5.1 to 15 nM.

In the case of `O=C(NC1CC2(C1)CC(c1n[nH]c(=O)c3ccccc13)C2)c1ccnn1CC1CC1` [Example 103, 1-(cyclopropylmethyl)-N-((aR)-6-(4-oxo-3,4-dihydrophthalazin-1-yl)spiro[3.3]heptan-2-yl)-1H-pyrazole-5-carboxamide], the IC50 lay in the range of 15.1 to 100 nM.

Take `O=C(NC1CC2(C1)CC(c1n[nH]c(=O)c3ccccc13)C2)c1ccnn1C1CCOCC1` [Example 104, N-((aR)-6-(4-oxo-3,4-dihydrophthalazin-1-yl)spiro[3.3]heptan-2-yl)-1-(tetrahydro-2H-pyran-4-yl)-1H-pyrazole-5-carboxamide]: the IC50 was in the range of 100 to 2100 nM.

Take `O=C(NC1CC2(C1)CC(c1n[nH]c(=O)c3ccccc13)C2)c1cnn2cc(OC3CCOC3)ccc12` [Example 105, N-((aR)-6-(4-oxo-3,4-dihydrophthalazin-1-yl)spiro[3.3]heptan-2-yl)-6-((tetrahydrofuran-3-yl)oxy)pyrazolo[1,5-a]pyridine-3-carboxamide]: the IC50 fell in the range of 0.2 to 2 nM.

Regarding `CC(C)(C)OC(=O)NCCn1cc(C(=O)NC2CC3(C2)CC(c2n[nH]c(=O)c4ccccc24)C3)cn1` [Example 106, tert-butyl (2-(4-(((aR)-6-(4-oxo-3,4-dihydrophthalazin-1-yl)spiro[3.3]heptan-2-yl)carbamoyl)-1H-pyrazol-1-yl)ethyl)carbamate], the IC50 was 100 to 2100 nM.

Consider `O=C(NC1CC2(C1)CC(c1n[nH]c(=O)c3ccccc13)C2)c1cnn2cc(OCC(O)C(F)(F)F)ccc12` [Example 107, N-((aR)-6-(4-oxo-3,4-dihydrophthalazin-1-yl)spiro[3.3]heptan-2-yl)-6-(3,3,3-trifluoro-2-hydroxypropoxy)pyrazolo[1,5-a]pyridine-3-carboxamide], for which the concentration for half-maximal inhibition (IC50) was 0.2 to 2 nM.

In the case of `COc1cccc(-n2cc(C(=O)NC3CC4(C3)CC(c3n[nH]c(=O)c5ccccc35)C4)cn2)c1` [Example 108, 1-(3-methoxyphenyl)-N-((aR)-6-(4-oxo-3,4-dihydrophthalazin-1-yl)spiro[3.3]heptan-2-yl)-1H-pyrazole-4-carboxamide], the IC50 is 2.01 to 5 nM.

Regarding `O=C(NC1CC2(C1)CC(c1n[nH]c(=O)c3ccccc13)C2)c1cnn(Cc2ccccc2)c1` [Example 109, 1-benzyl-N-((aR)-6-(4-oxo-3,4-dihydrophthalazin-1-yl)spiro[3.3]heptan-2-yl)-1H-pyrazole-4-carboxamide], the IC50 fell in the range of 2.01 to 5 nM.

`CC(C)(O)COc1ccc2c(C(=O)NC3CC4(C3)CC(c3n[nH]c(=O)c5ccccc35)C4)cnn2c1C(N)=O` [Example 110, 6-(2-hydroxy-2-methylpropoxy)-N3-((aR)-6-(4-oxo-3,4-dihydrophthalazin-1-yl)spiro[3.3]heptan-2-yl)pyrazolo[1,5-a]pyridine-3,7-dicarboxamide]: the IC50 was 15.1 to 100 nM.

On to `N#Cc1c(O)ccc2c(C(=O)NC3CC4(C3)CC(c3n[nH]c(=O)c5ccccc35)C4)cnn12` [Example 111, 7-cyano-6-hydroxy-N-((aR)-6-(4-oxo-3,4-dihydrophthalazin-1-yl)spiro[3.3]heptan-2-yl)pyrazolo[1,5-a]pyridine-3-carboxamide], for which the IC50 was in the range of 15.1 to 100 nM.

With `Cc1c(OCC(C)(C)O)ccc2c(C(=O)NC3CC4(C3)CC(c3n[nH]c(=O)c5ccccc35)C4)cnn12` [Example 112, 6-(2-hydroxy-2-methylpropoxy)-7-methyl-N-((aR)-6-(4-oxo-3,4-dihydrophthalazin-1-yl)spiro[3.3]heptan-2-yl)pyrazolo[1,5-a]pyridine-3-carboxamide], the IC50 was in the range of 2.01 to 5 nM.

Regarding `COCc1c(OCC(C)(C)O)ccc2c(C(=O)NC3CC4(C3)CC(c3n[nH]c(=O)c5ccccc35)C4)cnn12` [Example 113, 6-(2-hydroxy-2-methylpropoxy)-7-(methoxymethyl)-N-((aR)-6-(4-oxo-3,4-dihydrophthalazin-1-yl)spiro[3.3]heptan-2-yl)pyrazolo[1,5-a]pyridine-3-carboxamide], the IC50 was 2.01 to 5 nM.

For the compound `Cc1c(C(=O)NC2CC3(C2)CC(c2n[nH]c(=O)c4ccccc24)C3)nnn1-c1ccccc1` [Example 114, 5-methyl-N-((aR)-6-(4-oxo-3,4-dihydrophthalazin-1-yl)spiro[3.3]heptan-2-yl)-1-phenyl-1H-1,2,3-triazole-4-carboxamide], the IC50 lay in the range of 2.01 to 5 nM.

For the compound `COc1ccc(-n2nnc(C(=O)NC3CC4(C3)CC(c3n[nH]c(=O)c5ccccc35)C4)c2C)cc1` [Example 115, 1-(4-methoxyphenyl)-5-methyl-N-((aR)-6-(4-oxo-3,4-dihydrophthalazin-1-yl)spiro[3.3]heptan-2-yl)-1H-1,2,3-triazole-4-carboxamide], the IC50 lay within 2.01 to 5 nM.

Regarding `COc1cccc(-n2cc(C(=O)NC3CC4(C3)CC(c3n[nH]c(=O)c5ccccc35)C4)nn2)c1` [Example 116, 1-(3-methoxyphenyl)-N-((aR)-6-(4-oxo-3,4-dihydrophthalazin-1-yl)spiro[3.3]heptan-2-yl)-1H-1,2,3-triazole-4-carboxamide], the IC50 fell in the range of 2.01 to 5 nM.

On to `COc1ccccc1-n1nnc(C(=O)NC2CC3(C2)CC(c2n[nH]c(=O)c4ccccc24)C3)c1C` [Example 117, 1-(2-methoxyphenyl)-5-methyl-N-((aR)-6-(4-oxo-3,4-dihydrophthalazin-1-yl)spiro[3.3]heptan-2-yl)-1H-1,2,3-triazole-4-carboxamide], for which the IC50 was in the range of 15.1 to 100 nM.
